In the supplement of paper PMC10307832:

What was measured:
Assay in all cases: relative viability (nuclei count vs DMSO), 5 days (fraction); higher = more cells survive
TGX 221 + Trametinib = compound: CC1=CN2C(=O)C=C(N=C2C(=C1)C(C)NC3=CC=CC=C3)N4CCOCC4 [TGX 221] + CC(=O)Nc1cccc(-n2c(=O)n(C3CC3)c(=O)c3c(Nc4ccc(I)cc4F)n(C)c(=O)c(C)c32)c1 [Trametinib] (partner 0.02 µM)
How it was run: (§1)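 Nuclei were stained with Hoechst during a one-step fixation (final 0.05% Triton X-100, 1% formaldehyde, 1 ug/ml Hoechst) carried out 5 days after dosing, then counted on 4× images. The cells, lung cancer lines in 1536-well plates, had been dosed by pin tool the day after seeding with one drug alone or a fixed anchor-drug dose plus five library-drug doses (not always all listed) in √10 steps. Relative viability is the nuclei count in treated wells divided by that in vehicle wells, and each value is the median of duplicate plates.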

[1] = compound: C1=CC=C(C(=C1)C2=CC=C(C=C2)C3=CSC4=C3C(=C(C(=O)N4)C#N)O)O + O=C(c1cc(Cc2n[nH]c(=O)c3ccccc23)ccc1F)N1CCN(C(=O)C2CC2)CC1 [Olaparib] (partner 8 µM)
How it was run: as §1

[2] = compound: C1=CC=C(C(=C1)C2=CC=C(C=C2)C3=CSC4=C3C(=C(C(=O)N4)C#N)O)O + Cc1nc(NC(=O)N2CCC[C@H]2C(N)=O)sc1-c1ccnc(C(C)(C)C(F)(F)F)c1 [Alpelisib] (partner 2 µM)
How it was run: as §1

TGX 221 + Lapatinib = compound: CC1=CN2C(=O)C=C(N=C2C(=C1)C(C)NC3=CC=CC=C3)N4CCOCC4 [TGX 221] + CS(=O)(=O)CCNCc1ccc(-c2ccc3ncnc(Nc4ccc(OCc5cccc(F)c5)c(Cl)c4)c3c2)o1 [Lapatinib] (partner 2 µM)
How it was run: as §1

Cell Line	relative viability (TGX 221 + Trametinib; first compound 0.253 µM)	relative viability (TGX 221 + Trametinib; first compound 0.8 µM)	relative viability (TGX 221 + Trametinib; first compound 2.53 µM)	relative viability (TGX 221 + Trametinib; first compound 8 µM)	relative viability ([1]; first compound 0.253 µM)	relative viability ([1]; first compound 0.8 µM)	relative viability ([1]; first compound 2.53 µM)	relative viability ([1]; first compound 8 µM)	relative viability (TGX 221 + Trametinib; first compound 0.08 µM)	relative viability ([2]; first compound 0.08 µM)	relative viability ([2]; first compound 0.253 µM)	relative viability ([2]; first compound 0.8 µM)	relative viability ([2]; first compound 2.53 µM)	relative viability ([2]; first compound 8 µM)	relative viability (TGX 221 + Lapatinib; first compound 0.08 µM)	relative viability (TGX 221 + Lapatinib; first compound 0.253 µM)	relative viability (TGX 221 + Lapatinib; first compound 0.8 µM)	relative viability (TGX 221 + Lapatinib; first compound 2.53 µM)	relative viability (TGX 221 + Lapatinib; first compound 8 µM)	relative viability ([1]; first compound 0.08 µM)
NCI-H1648	0.403	0.569	0.435	0.471	0.689	0.841	0.31	0.722	–	–	–	–	–	–	–	–	–	–	–	–
NCI-H1755	0.743	0.646	0.647	0.628	0.901	0.875	0.841	0.916	0.792	0.861	0.957	0.941	1.03	0.883	1.06	1.02	1.01	0.974	0.943	0.989
PC-3 [JPC-3]	0.701	0.668	0.595	0.571	1.37	1.15	1.23	1.24	0.662	1.17	1.05	1.06	1.12	1.01	0.448	0.46	0.445	0.431	0.429	1.11
HCC-44	1.06	1.14	1.13	0.945	1.14	1.01	1.01	0.887	1.07	0.661	0.796	0.767	0.86	0.663	1	0.982	0.975	0.984	1.05	0.979
CAL-12T	0.299	0.316	0.33	0.325	0.834	0.824	0.856	0.651	0.272	–	1.05	0.989	1.2	0.861	–	0.533	0.576	–	0.621	0.724
ChaGo-K-1	0.871	0.857	0.922	0.843	0.443	0.396	0.439	0.45	0.952	–	–	–	–	–	–	–	–	–	–	0.388
NCI-H2126	0.441	0.568	0.547	0.56	0.976	0.95	0.955	0.786	0.535	0.784	0.809	0.748	0.77	0.731	0.61	0.752	0.667	0.616	0.717	0.888
HCC-827	0.473	0.478	0.44	0.493	0.65	0.59	0.662	0.622	0.556	1.09	1.01	0.993	1.06	1.06	0.187	0.205	0.2	0.191	0.205	0.739
LCLC-97TM1	0.172	0.22	0.187	0.185	0.357	0.431	0.429	0.445	0.178	0.251	0.346	0.265	0.225	0.173	1.12	0.726	1.12	1.05	1.02	0.223
HCC-15	0.335	0.368	0.376	0.337	0.789	0.705	0.728	0.802	0.373	0.976	1.03	0.943	1.01	0.819	0.842	0.8	0.821	0.823	0.861	0.797
NCI-H727	0.362	0.409	0.392	0.366	0.795	0.704	0.756	0.825	0.476	0.59	0.642	0.539	0.688	0.655	0.751	0.731	0.794	0.832	0.919	0.829
NCI-H2170	0.877	0.949	0.977	0.892	0.617	0.571	0.687	0.528	0.883	0.797	0.79	0.884	0.786	0.685	0.285	0.26	0.264	0.276	0.265	0.624
201T	0.728	0.703	0.703	0.697	0.812	0.828	0.74	0.885	0.704	1.08	1.03	1.01	1.01	1.08	–	1.05	0.98	1.02	0.943	0.652
NCI-H838	0.456	0.45	0.402	0.355	0.963	0.811	0.784	0.773	0.49	0.66	0.97	1.03	0.924	0.989	1.06	0.876	0.886	0.822	0.718	0.522
NCI-H1915	0.29	0.29	0.274	0.238	0.265	0.262	0.273	0.246	0.283	1.11	1.07	1.07	1.08	0.991	0.88	0.978	0.999	0.963	0.985	0.298
LCLC-103H	0.639	0.626	0.683	0.651	0.684	0.789	0.832	0.718	0.65	0.948	0.881	1.05	0.981	0.869	–	–	–	–	–	0.605
SK-LU-1	0.672	0.542	0.356	0.41	0.431	0.435	0.608	0.408	0.483	0.834	1.15	1.13	1.07	0.974	0.883	0.951	0.754	0.898	0.682	0.465
NCI-H2347	0.258	0.265	0.304	0.213	0.632	0.569	0.634	0.579	0.23	0.959	1.09	0.968	1.04	0.964	0.945	0.908	0.976	0.996	0.915	0.645
